Each structure is given as a SMILES string.

We go through four compounds from patent US6359181B1, “Cyclopentane 1-hydroxy alkyl or alkenyl-2-one or 2-hydroxy derivatives as therapeutic agents” (Allergan Sales, Inc., priority 2000, dated 2002).

The test system of data set [1] is intraocular pressure. The conditions noted are these: ocular; compared with PGF2α; cited from earlier work.
The subject of data set [2] is ocular surface. The conditions noted are these: topical ocular use in humans; cited from earlier work.
For data set [3], the system named is Dog intraocular pressure. The data set is described as follows: Intraocular pressure in dogs by applanation pneumatonometry. The conditions noted are these: 25 μl to the ocular surface, IOP before and at 6 hours after administration, FIG. 9. Format: in vivo. The protocol: The compounds were prepared at the said concentrations in a vehicle comprising 0.1% polysorbate 80 and 10 mM TRIS base. Dogs were treated by administering 25 μl to the ocular surface, the contralateral eye received vehicle as a control. Intraocular pressure was measured by applanation pneumatonometry. Dog intraocular pressure was measured immediately before drug administration and at 6 hours thereafter.

Take `CCCCC[C@H](O)/C=C/[C@@H]1[C@@H](C/C=C\CCCC(=O)OC(C)C)[C@@H](O)C[C@H]1O` [isopropyl ester of PGF2α]: the “hypotensive potency versus parent compound” value in data set [1] is reported as “significantly greater hypotensive potency than the parent compound”. In addition, in data set [2], the ocular side effects entry was “ocular surface (conjunctival) hyperemia and foreign-body sensation”.

Turning to `CCCCC[C@H](O)/C=C/[C@@H]1[C@@H](C/C=C\CCCC(=O)O)[C@@H](O)C[C@H]1O` [PGF2α, (Z)-7-[(1R,2R,3R,5S)-3,5-Dihydroxy-2-((S)-(E)-3-hydroxyoct-1-enyl)-cyclopentyl]hept-5-enoic Acid], the ocular side effects result in data set [2] was “ocular surface (conjunctival) hyperemia and foreign-body sensation”.

`CC(=O)OCC(=O)CCC/C=C\C[C@@H]1[C@@H](/C=C/[C@@H](O)CCc2ccc(Cl)s2)[C@H](OC(C)=O)C[C@@H]1O` [Example 102, Acetic Acid (Z)-8-{(1R,2R,3R,5S)-3-acetoxy-2-[(S)-(E)-5-(5-chloro-thiophen-2-yl)-3-hydroxy-pent-1-enyl]-5-hydroxy-cyclopentyl}-2-oxo-oct-6-enyl Ester]: the ocular hypotensive effect result in data set [3] was “pronounced ocular hypotensive effect”.

As for `CC(=O)OCC(=O)CCC/C=C\C[C@@H]1[C@@H](/C=C/[C@@H](O)CCc2ccc(Cl)s2)[C@H](O)C[C@@H]1O` [Example 101, Acetic Acid (Z)-8-{(1R,2R,3R,5S)-2-[(S)-(E)-5-(5-chloro-thiophen-2-yl)-3-hydroxy-pent-1-enyl]-3,5-dihydroxy-cyclopentyl}-2-oxo-oct-6-enyl Ester], the ocular hypotensive effect entry in data set [3] is on record as “pronounced ocular hypotensive effect”.
